The values below come from patent US20100173865A1, “Anti-Cancer Agent-Hyaluronic Acid Conjugate Compositions and Methods” (priority 2007, published 2010).

A word on the IC50: it is the point on the concentration scale where inhibition reaches its midpoint. What is called AUC is the area under the concentration-time curve, a measure of exposure.

Series [1] deals with NMP-1 xenografts. Kind of series: NMP-1 orthotopic (intraperitoneal) ovarian carcinoma xenograft, survival and MR imaging. The format is in vivo, nude mice. The note with it: for T/C / Mean Day of Survival/Sacrifice: qd7 × 3 i.p. from Day 7; for Mean Day of Survival/Sacrifice: mean ± SEM. How it is done:
On Day 0, about 1×10^7 viable NMP-1 cells were injected into the peritoneal cavities of groups of 6 to 9-week-old female nude mice (Harlan Sprague Dawley, Indianapolis, Ind.). Five or more mice per experimental group were used as the basis for statistical analyses. Administration of drugs was initiated 1 week later (Day 7). […] NMP-1-implanted mice develop marked ascites as one of the earliest clinical signs of peritoneal tumor and before other aspects of tumor progression are apparent; ascitic fluid was repeatedly removed at intervals from mice, beginning around the fourth week. […] For any tumor-bearing mice that succumbed between daily observations and before the opportunity to sacrifice them, the day of death was considered to be the day before the date they were discovered as deceased. The day of humane sacrifice/death was recorded for each mouse, and these values were compared among control and treatment groups by paired or unpaired Student's t-tests for the survival analyses.
MRI studies were conducted in the MDACC Small Animal Imaging Facility (SAIF). […] Klostergaard, J., et al., Magnetic Resonance Imaging-Based Prospective Detection of Intraperitoneal Human Ovarian Carcinoma Xenografts Treatment Response, Int J Gynecol Cancer, 2006, 16 Suppl 1:111-7. Respiratory-gated, T2-weighted (TE: 45.0 ms, TR: 1215.6 ms, 0.5 mm thickness, 0.3 mm space between images) coronal images were used for initial evaluation of tumor distribution and growth in these models; images of the abdomens of these mice were acquired using a Bruker 4.7 T, 40 cm Biospec MR scanner (Bruker Biospin USA, Billerica, Mass.).
In the NMP-1 studies, mice were held for survival endpoints. In the SKOV-3ip studies, tumor measurements were performed using the Image J program (National Institutes of Health, USA). Regions of interest (ROI) were drawn on each image that contained tumor and then multiplied by slice thickness to obtain the tumor volume. […] To avoid overestimation of tumor size, one half of the volume from the most dorsal and ventral images containing tumor were used in the volume analysis. Assuming a tumor density of 1 g/ml, tumor volumes (mm^3) were converted to weight (g) for analysis.

Series [2] deals with HN5 cell line. Kind of series: MTT cell proliferation assay. The class given is cell-based. The note with it: Homo sapiens, 72 h, 3-day incubation, read-out: IC50 (growth inhibition, MTT). Here is the method: (§1) To test the ability of paclitaxel and HA-paclitaxel to inhibit the proliferation of all human squamous cancer cell lines in vitro, a 3-(4,5-dimethylthiazol-2-yl)-2,5-diphenyltetrazolium bromide (MTT) assay was used. Two thousand cells per well were grown in DMEM medium supplemented with 10% FBS in 96-well tissue culture plates. After 24 h, the cells were treated with various concentrations of paclitaxel or HA-paclitaxel in DMEM medium supplemented with 2% FBS. To measure the number of metabolically active cells after a 3-day incubation period, an MTT assay as measured by a 96-well microtiter plate reader (MR-5000; Dynatech Laboratories Inc, Chantilly, Va.) at an optical density of 570 nm was used.
(§2) Quantified results of PCNA, CD31, and tumor volume were compared with Kruskal-Wallis and Wilcoxon rank-sum test, as appropriate. Survival was analyzed with the Kaplan-Meier method. Differences between the treatment and control groups were compared with the log-rank test. A two-tailed p<0.05 was considered significant.

Series [3] has as its system OSC19-luciferase cell line. In words: MTT cell proliferation assay. The note with it: Homo sapiens, 72 h, 3-day incubation, read-out: IC50 (growth inhibition, MTT). The format is cell-based. How it is done:
as §1, §2

Series [4] relates to OSC19-luciferase xenografts. In words: Orthotopic nude mouse model of oral tongue SCC, OSC19-luciferase. The class given is in vivo, nude mice.
Series [5] relates to HN5 xenografts. In words: Orthotopic nude mouse model of oral tongue SCC, HN5. The class given is in vivo, nude mice.
Series [6] concerns CD31/PECAM (microvessel density). In words: Microvessel density by CD31 staining of tumor sections. The note with it: weekly i.v. injections. The class given is in vivo, nude mice. How it is done:
Frozen tissues were sectioned into 8- to 10-μm slices and used for detection of CD31/platelet/endothelial cell adhesion molecule 1 (CD31/PECAM). The slices were mounted on positively charged Plus slides (Fisher Scientific, Pittsburgh, Pa.) and air-dried for 30 minutes; fixed sequentially in cold acetone (5 minutes), 1:1 acetone/chloroform (v/v; 5 minutes), and acetone (5 minutes), and then washed with PBS. Immunohistochemical procedures were done as described previously with the primary antibody diluted 1:400. Peroxidase-conjugated secondary antibody was used for immunohistochemical analysis of CD31/PECAM. Bleaching of fluorescence was minimized by covering the slides with 90% glycerol and 10% PBS. The slides were incubated with stable 3,3′-diaminobenzidine for 10 to 20 minutes and then examined for the presence of CD31/PECAM. The sections were rinsed with distilled water, counterstained with Gill's hematoxylin for 1 minute, and mounted with Universal Mount (Research Genetics, Huntsville, Ala.).
To quantify microvessel density (MVD), areas containing higher numbers of tumor-associated blood vessels were identified at low microscopic power (100×). Vessels completely stained with anti-CD31 antibodies were counted in three random 0.04-mm^2 fields per slide at 200× magnification.

For series [7] the following is noted: plasma; IP administration; data from Banzato et al.; cited from earlier work.

Take `CC(=O)O[C@H]1C(=O)[C@@]2(C)[C@H]([C@H](OC(=O)c3ccccc3)[C@]3(O)C[C@H](OC(=O)[C@H](O)[C@@H](NC(=O)c4ccccc4)c4ccccc4)C(C)=C1C3(C)C)[C@]1(OC(C)=O)CO[C@@H]1C[C@@H]2O` [Taxol, Paclitaxel]: the T/C in series [1] (10 mg/kg) is given as around 105; in series [1] (15 mg/kg), around 120. Moreover, the “Mean Day of Survival/Sacrifice” value turned out to be 32.6 ± 5.6 days in series [1] (10 mg/kg) and 37.6 ± 9.3 days in series [1] (15 mg/kg). In addition, the “Activity by MR imaging and survival criteria” value in series [1] (multiple-dose regimens, 10 or 15 mg/kg) is “essentially inactive”. In addition, the IC50 was 4.58 nM in series [2] and 2.16 nM in series [3]. For the same compound, the Median survival time in series [4] (OSC19-luciferase, 3 weekly i.v. injections, control 30 days) amounted to 60 days; in series [5] (3 weekly i.v. injections, control 26 days), 40 days. The “Reduction of bioluminescence as opposed to control” value in series [4] (OSC19-luciferase, one week after the last treatment) came to 86.5%. Besides, the “Reduction of tumor growth” value stood at 64.2% in series [4] (OSC19, one week after the last of 3 weekly i.v. treatments, HA-paclitaxel 120 mg/kg paclitaxel equivalent, paclitaxel 10 mg/kg) and 63.8% in series [5] (one week after the last of 3 weekly i.v. treatments, HA-paclitaxel 120 mg/kg paclitaxel equivalent, paclitaxel 10 mg/kg). For the same compound, the “Effect on microvessel density (MVD)” value in series [6] is given as “no effect on MVD”. Also, the AUC in series [7] was 144 µg·h/mL.
